Assay results as given in ChEMBL document CHEMBL2380212, “Synthesis, single crystal and antitumor activities of benzimidazole-quinazoline hybrids” (Bioorg Med Chem Lett, 2013).

What was measured:
[1] = n-Octanol-phosphate buffer partition coefficient, log P of the compound at pH 7.4 by shake flask method; type: physicochemical
MDA-MB-468 = experiment: Cytotoxicity against human MDA-MB-468 cells at 10 uM after 48 hrs by SRB assay; type: functional; details: MDA-MB-468, 48 h, read-out: GI
T47D = experiment: Cytotoxicity against human T47D cells at 10 uM after 48 hrs by SRB assay; type: functional; details: read-out: GI
MDA-MB-231 = experiment: Cytotoxicity against human MDA-MB-231 cells at 10 uM after 48 hrs by SRB assay; type: functional; details: MDA-MB-231, 48 h, read-out: GI
DU-145 = experiment: Cytotoxicity against human DU145 cells at 10 uM after 48 hrs by SRB assay; type: functional; details: DU-145, 48 h, read-out: GI
UO-31 = experiment: Cytotoxicity against human UO31 cells at 10 uM after 48 hrs by SRB assay; type: functional; details: UO-31, 48 h, read-out: GI
PC-3 = experiment: Cytotoxicity against human PC3 cells at 10 uM after 48 hrs by SRB assay; type: functional; details: PC-3, 48 h, read-out: GI
RXF 393 = experiment: Cytotoxicity against human RXF393 cells at 10 uM after 48 hrs by SRB assay; type: functional; details: RXF 393, 48 h, read-out: GI
SN12C = experiment: Cytotoxicity against human SN12C cells at 10 uM after 48 hrs by SRB assay; type: functional; details: read-out: GI
ACHN = experiment: Cytotoxicity against human ACHN cells at 10 uM after 48 hrs by SRB assay; type: functional; details: read-out: GI
786-0 = experiment: Cytotoxicity against human 786-0 cells at 10 uM after 48 hrs by SRB assay; type: functional; details: 786-0, 48 h, read-out: GI
SK-OV-3 = experiment: Cytotoxicity against human SKOV3 cells at 10 uM after 48 hrs by SRB assay; type: functional; details: SK-OV-3, 48 h, read-out: GI
OVCAR-8 = experiment: Cytotoxicity against human OVCAR8 cells at 10 uM after 48 hrs by SRB assay; type: functional; details: OVCAR-8, 48 h, read-out: GI
OVCAR-5 = experiment: Cytotoxicity against human OVCAR5 cells at 10 uM after 48 hrs by SRB assay; type: functional; details: OVCAR-5, 48 h, read-out: GI
OVCAR-4 = experiment: Cytotoxicity against human OVCAR4 cells at 10 uM after 48 hrs by SRB assay; type: functional; details: OVCAR-4, 48 h, read-out: GI
OVCAR-3 = experiment: Cytotoxicity against human OVCAR3 cells at 10 uM after 48 hrs by SRB assay; type: functional; details: OVCAR-3, 48 h, read-out: GI
IGROV-1 = experiment: Cytotoxicity against human IGROV1 cells at 10 uM after 48 hrs by SRB assay; type: functional; details: IGROV-1, 48 h, read-out: GI
UACC-62 = experiment: Cytotoxicity against human UACC62 cells at 10 uM after 48 hrs by SRB assay; type: functional; details: UACC-62, 48 h, read-out: GI
SK-MEL-2 = experiment: Cytotoxicity against human SK-MEL-2 cells at 10 uM after 48 hrs by SRB assay; type: functional; details: SK-MEL-2, 48 h, read-out: GI
M14 = experiment: Cytotoxicity against human M14 cells at 10 uM after 48 hrs by SRB assay; type: functional; details: M14, 48 h, read-out: GI
U-251 = experiment: Cytotoxicity against human U251 cells at 10 uM after 48 hrs by SRB assay; type: functional; details: U-251, 48 h, read-out: GI
LOX IMVI = experiment: Cytotoxicity against human LOXIMVI cells at 10 uM after 48 hrs by SRB assay; type: functional; details: read-out: GI
SNB-19 = experiment: Cytotoxicity against human SNB19 cells at 10 uM after 48 hrs by SRB assay; type: functional; details: SNB-19, 48 h, read-out: GI
SF-539 = experiment: Cytotoxicity against human SF539 cells at 10 uM after 48 hrs by SRB assay; type: functional; details: SF-539, 48 h, read-out: GI
SF-268 = experiment: Cytotoxicity against human SF268 cells at 10 uM after 48 hrs by SRB assay; type: functional; details: SF-268, 48 h, read-out: GI
KM12 = experiment: Cytotoxicity against human KM12 cells at 10 uM after 48 hrs by SRB assay; type: functional; details: KM12, 48 h, read-out: GI
HT-29 = experiment: Cytotoxicity against human HT-29 cells at 10 uM after 48 hrs by SRB assay; type: functional; details: HT-29, 48 h, read-out: GI
HCT-15 = experiment: Cytotoxicity against human HCT15 cells at 10 uM after 48 hrs by SRB assay; type: functional; details: HCT-15, 48 h, read-out: GI
HCT-116 = experiment: Cytotoxicity against human HCT116 cells at 10 uM after 48 hrs by SRB assay; type: functional; details: HCT-116, 48 h, read-out: GI
COLO 205 = experiment: Cytotoxicity against human COLO205 cells at 10 uM after 48 hrs by SRB assay; type: functional; details: COLO 205, 48 h, read-out: GI
NCI-H522 = experiment: Cytotoxicity against human NCI-H522 cells at 10 uM after 48 hrs by SRB assay; type: functional; details: NCI-H522, 48 h, read-out: GI
NCI-H460 = experiment: Cytotoxicity against human NCI-H460 cells at 10 uM after 48 hrs by SRB assay; type: functional; details: NCI-H460, 48 h, read-out: GI
NCI-H322M = experiment: Cytotoxicity against human NCI-H322M cells at 10 uM after 48 hrs by SRB assay; type: functional; details: read-out: GI
NCI-H226 = experiment: Cytotoxicity against human NCI-H226 cells at 10 uM after 48 hrs by SRB assay; type: functional; details: NCI-H226, 48 h, read-out: GI
NCI-H23 = experiment: Cytotoxicity against human NCI-H23 cells at 10 uM after 48 hrs by SRB assay; type: functional; details: NCI-H23, 48 h, read-out: GI
HOP-92 = experiment: Cytotoxicity against human HOP92 cells at 10 uM after 48 hrs by SRB assay; type: functional; details: HOP-92, 48 h, read-out: GI
A549 = experiment: Cytotoxicity against human A549 cells at 10 uM after 48 hrs by SRB assay; type: functional; details: A549, 48 h, read-out: GI
SR = experiment: Cytotoxicity against human SR cells at 10 uM after 48 hrs by SRB assay; type: functional; details: read-out: GI
K562 = experiment: Cytotoxicity against human K562 cells at 10 uM after 48 hrs by SRB assay; type: functional; details: K562, 48 h, read-out: GI
HL-60(TB) = experiment: Cytotoxicity against human HL-60(TB) cells at 10 uM after 48 hrs by SRB assay; type: functional; details: HL-60, 48 h, read-out: GI

SMILES: C=CCn1c(C)nc2ccc(Nc3nc(N4CCOCC4)nc4ccccc34)cc21
- logD [1]: 2.81
- inhibition of growth at 10 µM (MDA-MB-468): < 10%
- inhibition of growth at 10 µM (T47D): 11.2%
- inhibition of growth at 10 µM (MDA-MB-231): < 10%
- inhibition of growth at 10 µM (DU-145): < 10%
- inhibition of growth at 10 µM (UO-31): 14.7%
- inhibition of growth at 10 µM (PC-3): 11.4%
- inhibition of growth at 10 µM (RXF 393): < 10%
- inhibition of growth at 10 µM (SN12C): < 10%
- inhibition of growth at 10 µM (ACHN): < 10%
- inhibition of growth at 10 µM (786-0): < 10%
- inhibition of growth at 10 µM (SK-OV-3): < 10%
- inhibition of growth at 10 µM (OVCAR-8): 20.1%
- inhibition of growth at 10 µM (OVCAR-5): < 10%
- inhibition of growth at 10 µM (OVCAR-4): < 10%
- inhibition of growth at 10 µM (OVCAR-3): < 10%
- inhibition of growth at 10 µM (IGROV-1): < 10%
- inhibition of growth at 10 µM (UACC-62): < 10%
- inhibition of growth at 10 µM (SK-MEL-2): < 10%
- inhibition of growth at 10 µM (M14): < 10%
- inhibition of growth at 10 µM (U-251): < 10%
- inhibition of growth at 10 µM (LOX IMVI): < 10%
- inhibition of growth at 10 µM (SNB-19): < 10%
- inhibition of growth at 10 µM (SF-539): < 10%
- inhibition of growth at 10 µM (SF-268): < 10%
- inhibition of growth at 10 µM (KM12): 11.9%
- inhibition of growth at 10 µM (HT-29): 34.7%
- inhibition of growth at 10 µM (HCT-15): < 10%
- inhibition of growth at 10 µM (HCT-116): < 10%
- inhibition of growth at 10 µM (COLO 205): < 10%
- inhibition of growth at 10 µM (NCI-H522): < 10%
- inhibition of growth at 10 µM (NCI-H460): < 10%
- inhibition of growth at 10 µM (NCI-H322M): < 10%
- inhibition of growth at 10 µM (NCI-H226): < 10%
- inhibition of growth at 10 µM (NCI-H23): < 10%
- inhibition of growth at 10 µM (HOP-92): < 10%
- inhibition of growth at 10 µM (A549): 11.8%
- inhibition of growth at 10 µM (SR): < 10%
- inhibition of growth at 10 µM (K562): 35.6%
- inhibition of growth at 10 µM (HL-60(TB)): 61.9%
